In US20180201647A1, “Peptoid” (The University of Durham, priority 2015, published 2018):
Read-outs that look alike come from different tables or passages of the source. *1 amine or outer side, *2 acyl side, *3 side chain or, on linkers, in order; H or OH if unused. Where a SMILES comes first, the peptide text is derived from it. [ ]: non-standard residue; d: D form. Gly(N-2-aminoethyl) = NCCNCC(=O)O; X1 = N=C(N)NCCN(CC(=O)[*:2])[*:1]; Nspe = C[C@H](NCC(=O)O)c1ccccc1; NhArg = N=C(N)NCCCCNCC(=O)O; Nlys = NCCCCNCC(=O)O

Experiments:
Format in all cases: cell-based
[1] = tested on: Serratia marcescens laboratory strain; conditions: 16 h
Experimental: (§1) Species used in MIC assays included gram-negative Escherichia coli K12 W3110, Pseudomonas aeruginosa laboratory strain PAO2 and Serratia marcescens laboratory strain and gram-positive Staphylococcus aureus NCTC 6571 and Micrococcus luteus laboratory strain.
(§2) Bacterial cultures were prepared by streaking the bacterial strains on to agar plates with an inoculation loop and incubating overnight at 37° C. A single colony was then selected and placed in 5 mL of Iso-Sensitest broth using an inoculation loop and incubated at 37° C. with shaking overnight.
(§3) MIC values were attained according to the protocol described by J. M. Andrews et al. [J. M. Andrews, J. Antimicrob. Chemother., 2001, 48, 5-16] and were conducted in 96-well microtitre plates in triplicate. 10-50 μL of each overnight culture was inoculated into 1.2 mL of Iso-Sensitest broth and grown at 37° C. with shaking. […] The inoculum was diluted ten-fold with Iso-Sensitest broth before use (to ˜10^3 cfu/spot). Peptide solutions were initially dissolved in DMSO (5 mg mL^−1) and then diluted further with Iso-Sensitest broth to achieve a concentration range of 4 mgL^−1 to 512 mgL^−1 using 2-fold serial dilutions. Samples were vortexed between dilutions where necessary to aid dissolution. 50 μL of inoculum and 50 μL of peptide solution were added to each test well to achieve a final concentration range of 2 mgL^−1 to 256 mgL^−1. Separate dilutions of ampicillin and DMSO were made up in a similar manner to act as a positive antibacterial control and a +DMSO control, respectively. 50 μL of inoculum and 50 μL of Iso-Sensitest broth were used as a positive control and 100 μL of inoculum was used as a negative control. Positive and negatives controls were conducted multiple times in parallel per plate. […] Quantitative data were attained as A650nm values using a BioTek® Synergy™ H4 Hybrid Multi-Mode Microplate Reader.

[2] = tested on: Staphylococcus aureus NCTC 6571
Experimental: as §1, §2, §3

[3] = tested on: Pseudomonas aeruginosa laboratory strain PAO2
Experimental: as §1, §2, §3

[4] = tested on: Escherichia coli K12 W3110
Experimental: as §1, §2, §3

[5] = tested on: S. aureus (NCTC 6571) biofilm; experiment: Single species biofilm treatment, crystal violet assay; conditions: 100 μM peptoid, 24 hours, FIG. 17B
Experimental: C. albicans (NCTC 3179) was subcultured aerobically on Sabouraud agar plates and propagated in yeast peptone dextrose broth. E. coli (ATCC 29522) and S. aureus (NCTC 6571) were grown on blood agar plates and propagated in brain heart infusion (BHI) broth.
Overnight cultures of C. albicans were washed and resuspended in a modified RPMI-1640 (Sigma-Aldrich, St Louis, USA) medium to yield an inoculum of 1.0×10^6 cells/ml. Overnight cultures of S. aureus or E. coli were washed and resuspended in brain heart infusion broth (Oxoid, Basingstoke, UK) to yield an inoculum of 5.0×10^6 cells/ml. A total volume of 100 μl of each inoculum was added to microtitre plate wells (Thermo Fisher Scientific, Roskilde, Denmark). An initial biofilm was allowed to form for 4 hours. Wells were washed three times with 200 μl PBS to facilitate removal of planktonic cells and the biofilms were then treated with 100 μM of peptoids 1-4 in the appropriate broth. Plates were incubated for a further 24 hours to allow biofilm maturation. After removal of planktonic cells by washing, biofilms were quantified by the crystal violet assay or by PMA-qPCR.
Biofilm quantification by crystal violet assay Washed biofilms were fixed with 100 μl methanol for 10 minutes. Following removal of methanol, the wells were air dried and stained with crystal violet solution (Clin-Tech Ltd, Guildford, UK) for 20 minutes at room temperature. Excess stain was removed by washing, the plate was then air dried and bound crystal violet was re-solubilised in 16 μl 33% acetic acid prior to reading at 570 nm in a microtitre plate reader (Tecan GENios, Ziirich, Switzerland).

[6] = tested on: T. cruzi Tulahuen strain C2C4; experiment: microbe, parasite or virus in culture; conditions: for IC50: in L-6 cells, 96 h
Experimental: Rat skeletal myoblasts (L-6 cells) were seeded in 96-well microtitre plates at 2000 cells/well in 100 μL RPMI 1640 medium with 10% FBS and 2 mM 1-glutamine. After 24 h the medium was removed and replaced by 100 μl per well containing 5000 trypomastigote forms of T. cruzi Tulahuen strain C2C4 containing the β-galactosidase (Lac Z) gene. After 48 h the medium was removed from the wells and replaced by 100 μl fresh medium with or without a serial drug dilution of eleven 3-fold dilution steps covering a range from 100 to 0.002 μg/ml. After 96 h of incubation the plates were inspected under an inverted microscope to assure growth of the controls and sterility. Then the substrate CPRG/Nonidet (50 μl) was added to all wells. A color reaction developed within 2-6 h and could be read photometrically at 540 nm. Data were analyzed with the graphic programme Softmax Pro (Molecular Devices), which calculated IC50 values by linear regression from the sigmoidal dose inhibition curves. Benznidazole is used as control (IC50 0.5+0.2 μg/ml).

[7] = tested on: erythrocytic stages of P. falciparum
Experimental: In vitro activity against erythrocytic stages of P. falciparum was determined using a 3H-hypoxanthine incorporation assay using the drug sensitive NF54 strain (Schipol airport) or the chloroquine and pyrimethamine resistant K1 strain that originate from Thailand and the standard drug chloroquine (Sigma C6628). Compounds were dissolved in DMSO at 10 mg/ml and added to parasite cultures incubated in RPMI 1640 medium without hypoxanthine, supplemented with HEPES (5.94 g/l), NaHCO3 (2.1 g/1), neomycin (100 U/ml), Albumax® (5 g/l) and washed human red cells A^+ at 2.5% haematocrit (0.3% parasitaemia). Serial drug dilutions of eleven 3-fold dilution steps covering a range from 100 to 0.002 μg/ml were prepared. The 96-well plates were incubated in a humidified atmosphere at 37° C.; 4% CO2, 3% O2, 93% N2. After 48 h 50 μl of 3H-hypoxanthine (=0.5 μCi) was added to each well of the plate. The plates were incubated for a further 24 h under the same conditions. The plates were then harvested with a Betaplate™ cell harvester (Wallac, Zurich, Switzerland), and the red blood cells transferred onto a glass fibre filter then washed with distilled water. The dried filters were inserted into a plastic foil with 10 ml of scintillation fluid, and counted in a Betaplate™ liquid scintillation counter (Wallac, Zurich, Switzerland). IC50 values were calculated from sigmoidal inhibition curves by linear regression using Microsoft Excel. Chloroquine and artemisinin are used as control.

[8] = tested on: L. donovani strain MHOM/ET/67/L82 axenic amastigotes
Experimental: Amastigotes of L. donovani strain MHOM/ET/67/L82 were grown in axenic culture at 37° C. in SM medium^24 at pH 5.4 supplemented with 10% heat-inactivated fetal bovine serum under an atmosphere of 5% CO2 in air. One hundred microlitres of culture medium with 10^5 amastigotes from axenic culture with or without a serial drug dilution were seeded in 96-well microtitre plates. Serial drug dilutions of eleven 3-fold dilution steps covering a range from 90 to 0.002 μg/ml were prepared. After 70 h of incubation the plates were inspected under an inverted microscope to assure growth of the controls and sterile conditions. 10 μl of Alamar Blue (12.5 mg resazurin dissolved in 100 ml distilled water) were then added to each well and the plates incubated for another 2 h. Then the plates were read with a Spectramax Gemini XS microplate fluorometer (Molecular Devices Cooperation, Sunnyvale, Calif., USA) using an excitation wave length of 536 nm and an emission wave length of 588 nm. Data were analyzed using the software Softmax Pro (Molecular Devices Cooperation, Sunnyvale, Calif., USA). Decrease of fluorescence (=inhibition) was expressed as percentage of the fluorescence of control cultures and plotted against the drug concentrations. From the sigmoidal inhibition curves the IC50 values were calculated.

[9] = tested on: Trypanosoma brucei rhodesiense STIB900
Experimental: This stock was isolated in 1982 from a human patient in Tanzania and after several mouse passages cloned and adapted to axenic culture conditions. Minimum Essential Medium (50 μl) supplemented with 25 mM HEPES, 1 g/l additional glucose, 1% MEM non-essential amino acids (100×), 0.2 mM 2-mercaptoethanol, 1 mM Na-pyruvate and 15% heat inactivated horse serum was added to each well of a 96-well microtiter plate. Serial drug dilutions of eleven 3-fold dilution steps covering a range from 100 to 0.002 μg/ml were prepared. Then 4×10^3 bloodstream forms of T. b. rhodesiense STIB 900 in 50 μl was added to each well and the plate incubated at 37° C. under a 5% CO2 atmosphere for 70 h. 10 μl Alamar Blue (resazurin, 12.5 mg in 100 ml double-distilled water) was then added to each well and incubation continued for a further 2-4 h. Then the plates were read with a Spectramax Gemini XS microplate fluorometer (Molecular Devices Cooperation, Sunnyvale, Calif., USA) using an excitation wave length of 536 nm and an emission wave length of 588 nm. The IC50 values were calculated by linear regression from the sigmoidal dose inhibition curves using SoftmaxPro software (Molecular Devices Cooperation, Sunnyvale, Calif., USA). Melarsoprol (Arsobal Sanofi-Aventis, received from WHO) is used as control.

[10] = second figure of cell, 37° C., 16 h, Iso-Sensitest broth

Q: With `C[C@@H](c1ccccc1)N(CC(N)=O)C(=O)CN(C(=O)CN(CCCCN)C(=O)CN(C(=O)CN(C(=O)CN(CCCCN)C(=O)CN(C(=O)CN(C(=O)CN(CCCCNC(=N)N)C(=O)CN(C(=O)CN(C(=O)CNCCCCN)[C@@H](C)c1ccccc1)[C@@H](C)c1ccccc1)[C@@H](C)c1ccccc1)[C@@H](C)c1ccccc1)[C@@H](C)c1ccccc1)[C@@H](C)c1ccccc1)[C@@H](C)c1ccccc1` [Peptoid 3, (NLys-Nspe-Nspe)(NhArg-Nspe-Nspe)(NLys-Nspe-Nspe)2] (H-[Nlys][Nspe][Nspe][NhArg][Nspe][Nspe][Nlys][Nspe][Nspe][Nlys][Nspe][Nspe]-NH2; N-terminus assumed) as the molecule, how does the “MIC S. marcescens” value ([1]; laboratory strain) read?
A: The value was 134 µM.

Q: What about the “MIC S. marcescens” value ([1]; second figure of cell, 37° C., Iso-Sensitest broth) of the same molecule?
A: The value was 256 mgL^−1.

Q: And the “MIC S. aureus” value ([2]; NCTC 6571, 16 h)?
A: Its value is 17 µM.

Q: What about the “MIC S. aureus” value [2, 10] of the same molecule?
A: The value was 32 mgL^−1.

Q: What about the “MIC P. aeruginosa” value ([3]; laboratory strain PAO2, 16 h) of the same molecule?
A: Its value is 17 µM.

Q: And the “MIC P. aeruginosa” value [3, 10]?
A: Its value is 32 mgL^−1.

Q: What about the “MIC E. coli” value ([4]; K12, 16 h) of the same molecule?
A: Its value is 17 µM.

Q: What about the “MIC E. coli” value [4, 10] of the same molecule?
A: The value was 32 mgL^−1.

Q: And the “activity against the S. aureus biofilm” value [5]?
A: The value was “strongest anti-bacterial activity”.

Q: `C[C@@H](c1ccccc1)N(CC(N)=O)C(=O)CN(C(=O)CN(CCN)C(=O)CN(C(=O)CN(C(=O)CN(CCNC(=N)N)C(=O)CN(C(=O)CN(C(=O)CN(CCN)C(=O)CN(C(=O)CN(C(=O)CNCCNC(=N)N)[C@@H](C)c1ccccc1)[C@@H](C)c1ccccc1)[C@@H](C)c1ccccc1)[C@@H](C)c1ccccc1)[C@@H](C)c1ccccc1)[C@@H](C)c1ccccc1)[C@@H](C)c1ccccc1` [Peptoid 6, [(NnArgNspeNspe)(NaeNspeNspe)]2] (H-[X1][Nspe][Nspe][Gly(N-2-aminoethyl)][Nspe][Nspe][X1][Nspe][Nspe][Gly(N-2-aminoethyl)][Nspe][Nspe]-NH2; N-terminus assumed) was tested. Which IC50 ([6]; read-out: IC50 T. cruzi) did it give?
A: The IC50 was 6.58 µM.

Q: And the “active against T. cruzi” value ([6]; statement in words)?
A: The value was “active”.

Q: And the “active against P. falciparum” value ([7]; statement in words)?
A: The value was “active”.

Q: And the IC50 ([7]; strain (NF54 or K1) not given)?
A: Its IC50 is 0.99 µM.

Q: What about the “active against L. donovani” value ([8]; statement in words) of the same molecule?
A: The value was “active”.

Q: What about the IC50 ([8]; strain MHOM/ET/67/L82 axenic amastigotes, 70 h) of the same molecule?
A: The IC50 was 9.51 µM.

Q: What about the IC50 ([9]; 70 h) of the same molecule?
A: Its IC50 is 6.44 µM.

Q: And the “active against T. brucei rhodesiense” value ([9]; statement in words)?
A: The value was “active”.

Q: With `O=C(Cn1ccnc1[N+](=O)[O-])NCc1ccccc1` [Benznidazole, reference compound] as the molecule, how does the IC50 ([6]; Trypanosoma cruzi, TULAHUEN, L6, control drug, read-out: IC50 T. cruzi, control) read?
A: Its IC50 is 0.5 µg/mL.
